Values of other authors as cited in patent US20060062074A1, “Method for intracellular modifications within living cells using pulsed electric fields” (priority 2001, published 2006).

Test system: a variety of cell lines
Conditions: 0.0075% Triton X-100; positive control; literature (Borner et al. 1994)

## Triton X-100
  induction of apoptosis: induce apoptosis
